The source of these data is patent US8394742B2, “Methods, compounds and compositions with genotype selective anticancer activity” (The Translation Genomics Research Institute, priority 2005, dated 2013).

Assay [1] relates to DPC4. In words: DPC4 suppression by siRNA expression constructs, transient transfection. To be noted: MiaPaCa-2 (wild-type DPC4), 24 hours after transfection. It is filed as cell-based, human. An excerpt: The pMSCVproH vector was first used to create 6 DPC4 siRNA expression constructs, each of which targets a different region of the DPC4 transcript. Each of the oligonucleotide sequences was designed based on the criteria described by Tuschl and co-workers (65) and blasted against the GenBank database to confirm their specificity for DPC4.
Applicants first tested the ability of these constructs in suppressing DPC4 expression by performing transient transfections. Each construct was transiently transfected into the pancreatic cancer cell line MiaPaCa-2 (wild-type DPC4) using the Lipofectin Reagent (Invitrogen). DPC4 expression was examined 24 hours after transfection.

For assay [2], the system named is DPC4. In words: DPC4 suppression in HPDE6 clones after retrovirus infection (Western blot). Format: cell-based, human. An excerpt: Because of its high suppression ability in transient transfections, the construct pMSCVpuroH_DPC4_oligo4 was chosen to generate a cell line with stable DPC4 suppression from HPDE6. To verify the specificity of Oligo4, Applicants created a construct with a mutated Oligo4, Oligo4mut10. The only difference between the two oligos is that the nucleotide residue at position 10 was changed from cytosine in Oligo4 to adenine in Oligo4mut10 (FIG. 11A). After retrovirus infection, HPDE6 cells were selected with puromycin at 3 μg/ml. Individual clones were isolated using serial dilution of the cells in 96-well plates. Ten individual clones for each construct were picked and tested for DPC4 expression at protein level by Western blot.
Eight passages after the infection, the expression of DPC4 in this clone was still 90% inhibited compared to the HPDE6 cells transfected with the empty vector (HPDE6-vector). This new cell line, which was named HPDE6-siDPC4, along with HPDE6-vector forms a set of isogenic cell lines for the DPC4 gene.
Background: In western blotting, separated proteins are transferred to a membrane and probed.

As for 5′AGCAAGGTTGCACATAGGC 3′ [Olig6], in the assay with DPC4 [1], the DPC4 suppression entry is listed as “about 80%”.
For 5′GTAGGACTGCACCATACAC 3′ [Oligo4], the DPC4 suppression result in the assay with DPC4 [1] is “about 90%”; in the assay on DPC4 [2] (HPDE6 individual clones, six out of 10, protein level by Western blot), “about 90%”. The “expression of DPC4 inhibited” value with DPC4 [2] (HPDE6 clone (HPDE6-siDPC4), eight passages after infection, vs HPDE6-vector) is listed as 90%.
